Laboratory results reported in patent US9730445B2, “Herbicidal compositions comprising 4-amino-3-chloro-5-fluoro-6-(4-chloro-2-fluoro-3-methoxyphenyl) pyridine-2-carboxylic acid or a derivative thereof and fungicides” (DOW AGROSCIENCES LLC, priority 2013, dated 2017).
Where “and” joins values, the source holds several entries; their conditions need not be identical. Equal values may be shown once.

Key:
Test in all cases: Postemergence foliar-applied weed control, direct-seeded rice (greenhouse)
ECHCO = assay type: in vivo, Echinochloa colonum (L.) LINK (junglerice)
Text: (§1) Seeds or nutlets of the desired test plant species were planted in a soil matrix prepared by mixing aloam or sandy loam soil (e.g., 28.6 percent silt, 18.8 percent clay, and 52.6 percent sand, with a pH of about 5.8 and an organic matter content of about 1.8 percent) and calcareous grit in an 80 to 20 ratio. The soil matrix was contained in plastic pots with a volume of 1 quart and a surface area of 83.6 square centimeters (cm^2). When required to ensure good germination and healthy plants, a fungicide treatment and/or other chemical or physical treatment was applied. The plants were grown for 8-22 days in a greenhouse with an approximate 14 hour (h) photoperiod which was maintained at about 29° C. during the day and 26° C. during the night. Nutrients (Peters Excel® 15-5-15 5-Ca 2-Mg and iron chelate) were applied in the irrigation solution as needed and water was added on a regular basis. Supplemental lighting was provided with overhead metal halide 1000-Watt lamps as necessary. The plants were employed for testing when they reached the first through fourth true leaf stage.
(§2) Treatments consisted of the acid or esters of 4-amino-3-chloro-5-fluoro-6-(4-chloro-2-fluoro-3-methoxy-phenyl)pyridine-2-carboxylic acid (Compound A), each formulated as an SC (suspension concentrate), and various fungicidal components alone and in combination. Forms of compound A were applied on an acid equivalent basis.
(§3) Treatment requirements were calculated based upon the rates being tested, the concentration of active ingredient or acid equivalent in the formulation and a 12 milliliter (mL) application volume at a rate of 187 liters per hectare (L/ha).
(§4) For treatments comprised of formulated compounds, measured amounts of compounds were placed individually in 25 mL glass vials and diluted in a volume of 1.25% volume per volume (v/v) Agri-Dex® crop oil concentrate to obtain 12× stock solutions. […] Application solutions were prepared by adding an appropriate amount of each stock solution (e.g., 1 mL) and diluted to the appropriate final concentrations with the addition of […] of an aqueous mixture of 1.25% (v/v) crop oil concentrate so that the final spray solutions contained 1.25+/−0.05% (v/v) crop oil concentrate.
(§5) For treatments comprised of technical compounds, weighed amounts can be placed individually in 25 mL glass vials and dissolved in a volume of 97:3 volume per volume (v/v) acetone/dimethyl sulfoxide (DMSO) to obtain 12× stock solutions. […] When technical materials are used, the concentrated stock solutions can be added to the spray solutions so that the final acetone and DMSO concentrations of the application solutions are 16.2% and 0.5%, respectively.
(§6) As required, additional water and/or 97:3 v/v acetone/DMSO was added to individual application solutions so that the final acetone and DMSO concentrations of the application solutions being compared were 8.1% and 0.25%, respectively
(§7) All stock solutions and applications solutions were visually inspected for compound compatibility prior to application. Spray solutions were applied to the plant material with an overhead Mandel track sprayer equipped with 8002E nozzles calibrated to deliver 187 L/ha over an application area of 0.503 square meters (m^2) at a spray height of 18 to 20 inches (46 to 50 cm) above average plant canopy height. Control plants were sprayed in the same manner with the solvent blank.
(§8) The treated plants and control plants were placed in a greenhouse as described above and watered by sub-irrigation to prevent wash-off of the test compounds. After approximately 3 weeks, the condition of the test plants as compared with that of the untreated plants was determined visually and scored on a scale of 0 to 100 percent where 0 corresponds to no injury or growth inhibition and 100 corresponds to complete kill. […]

ECHOR = assay type: in vivo, Echinochloa oryzoides (Ard.) Fritsch (early watergrass); details: r78-80 ester 8/16/32 g ae/ha alone, r81-83 difenoconazole 50/100/200 g ai/ha alone, r84-92 ester 8/16/32 at each of 50, 100, 200
Protocol: as §1, with “When required to ensure good germination and healthy plants, a fungicide treatment and/or other chemical or physical treatment was applied.” left out
as §2
For treatments comprised of formulated compounds, measured amounts of compounds were placed individually in 25 mL glass vials and diluted in a volume of 1.25% volume per volume (v/v) Agri-Dex® crop oil concentrate to obtain 12× stock solutions. […]
as §8

BRAPP = assay type: in vivo
Text: as §1, §2, §3, §4, §5, §6, §7, §8

CYPIR = assay type: in vivo, Cyperus iria L. (rice flatsedge); details: 21 DAA
ECHCG = assay type: in vivo, Echinochloa crus-galli (L.) P. Beauv. (barnyardgrass)
[1] = r9-11 ester 8/16/32 g ae/ha alone, r12-14 hexaconazole 25/50/100 g ai/ha alone, r15-23 ester 8/16/32 at each of 25, 50, 100
[2] = r38-39 ester 8/16 g ae/ha alone, r40 isotianil 380 g ai/ha alone, r41-42 ester 8/16 + 380

Structure (SMILES): COc1c(Cl)ccc(-c2nc(C(=O)OCc3ccccc3)c(Cl)c(N)c2F)c1F [Compound A Benzyl Ester]
- Visual Weed Control (%) - 19 DAA ECHCO Obs (ECHCO; r9-11 ester 8/16/32 g ae/ha alone, r12-13 carbendazim 125/250 g ai/ha alone, r14-19 ester 8/16/32 at each of 125, 250): 90% and 95% and 65%
- Visual Weed Control (%) - 19 DAA ECHCO Obs (ECHCO; r9-11 ester 8/16/32 g ae/ha alone, r12-13 flutolanil 280/560 g ai/ha alone, r14-19 ester 8/16/32 at each of 280, 560): 90% and 95% and 65%
- Visual Weed Control (%)—21 DAA ECHCO Obs (ECHCO; [1]): 65% and 85% and 50%
- Visual Weed Control (%)—21 DAA ECHCO Obs (ECHCO; [2]): 50% and 65%
- Visual Weed Control (%) - 21 DAA ECHOR Obs (ECHOR): 45% and 43% and 70%
- Visual Weed Control (%)—20 DAA BRAPP Obs (BRAPP; 20 DAA, r9-11 ester 8/16/32 g ae/ha alone, r12 isotianil 200 g ai/ha alone, r13-15 ester 8/16/32 + 200): 85% and 90% and 60%
- Visual Weed Control (%)—21 DAA BRAPP Obs (BRAPP; r29-30 ester 8/16 g ae/ha alone, r31-33 hexaconazole 25/50/100 g ai/ha alone, r34-39 ester 8/16 at each of 25, 50, 100): 55% and 60%
- Visual Weed Control (%)—21 DAA BRAPP Obs (BRAPP; [2]): 55% and 60%
- Visual Weed Control (%) - 21 DAA CYPIR Obs (CYPIR; r23-24 ester 16/32 g ae/ha alone, r25 pyroquilon 925 g ai/ha alone, r26-27 ester 16/32 + 925): 85% and 99%
- Visual Weed Control (%) - 21 DAA CYPIR Obs (CYPIR; r26-27 ester 16/32 g ae/ha alone, r28-29 isoprothiolane 266/533 g ai/ha alone, r30-33 ester 16/32 at each of 266, 533): 85% and 99%
- Visual Weed Control (%)—21 DAA CYPIR Obs (CYPIR; r29-30 ester 8/16 g ae/ha alone, r31-33 kasugamycin 17.5/35/70 g ai/ha alone, r34-39 ester 8/16 at each of 17.5, 35, 70): 50% and 70%
- Visual Weed Control (%)—21 DAA CYPIR Obs (CYPIR; r45 ester 8 g ae/ha alone, r46-48 hexaconazole 25/50/100 g ai/ha alone, r49-51 ester 8 + 25/50/100): 35%
- Visual Weed Control (%)—21 DAA ECHCG Obs (ECHCG; [1]): 85% and 90% and 45%
- Visual Weed Control (%)—21 DAA ECHCG Obs (ECHCG; [2]): 45% and 85%
- Visual Weed Control (%) - 21 DAA ECHCG Obs (ECHCG; r58-60 ester 8/16/32 g ae/ha alone, r61-63 difenoconazole 50/100/200 g ai/ha alone, r64-72 ester 8/16/32 at each of 50, 100, 200): 70% and 60% and 90%
